The values below come from PMC12409542, “Synthesis and Computational Evaluation of N‑Acetyl-Derived Schiff Bases Incorporating 1,2,4-Triazoles for Dual Inhibition of Prostate Cancer Cells and Carbonic Anhydrases” (ACS Omega, 2025).

Each structure is given as a SMILES string.

The term IC50 denotes the point on the concentration scale where inhibition reaches its midpoint. Low values mean greater potency in that assay, high ones weaker potency in that assay.

The subject of assay [1] is DU145 cells. Put plainly: Cell viability assay (CVDK-8), DU145 cells. The assay is classed as cell-based, human. To be noted: for effect on viability of cancer cells (in words): DU145, 1, 10 and 100 μM, 24 h; for IC50: Homo sapiens, DU-145, viability of DU145 cells, 24 h treatment, CVDK-8; for selectivity indices (SI) PNT1a IC50/DU145 IC50: ratio PNT1a IC50/DU145 IC50, 24 h. The method, then: (§1) In this research, the inhibitory effects of the compounds under investigation on cell viability were assessed using two distinct human cell lines: specifically, the DU145 cell line, representative of prostate cancer, and the PNT1a cell line, which serves as a model for normal human prostate epithelial cells. Cells were routinely cultured in RPMI-1640 medium supplemented with 10% fetal bovine serum, 1% penicillin/streptomycin (Gibco), and 1% L-glutamine. All cells were maintained in a 5% CO2 humidified incubator at 37 °C.
(§2) Effects of all compounds synthesized in this study on the viability of PNT1a and DU145 cells were analyzed using the Cell Viability Detection Kit-8 (CVDK-8, Ecotech Biotechnology, Erzurum, Turkey). In brief, cells were seeded at a concentration of 3 × 10^3 cells per well within 100 μL medium in 96 well plates. Then, cells were treated with compounds at concentrations of […] for 24 h. After treatment with the test compounds, the medium was removed and fresh RPMI-1640 medium containing 1/10 CVDK- 8 reagent was added to each well, and plates were incubated for 3 h at 37 °C protected from light. After the incubation period, optical densities were measured using Epoch spectrophotometer at 450 nm. For cell culture, experiments were performed in triplicate, and data were analyzed by t tests.

The subject of assay [2] is PNT1a cells. Put plainly: Cell viability assay (CVDK-8), PNT1a cells. Format: cell-based. To be noted: Homo sapiens, viability of PNT1a normal prostate epithelial cells, 24 h treatment. Here is the method: as §1, §2
Assay [3] deals with hCA I (Homo sapiens, UniProt P00915). Put plainly: hCA I inhibition, spectrophotometric esterase method (p-nitrophenyl acetate). The assay is classed as biochemical. The conditions noted are these: p-nitrophenyl acetate substrate, 348 nm; for Ki: read-out: K i (μM) hCA I. The method, then:
(§3) In this study, Sepharose-4B L-Tyrosine sulfanilamide affinity chromatography was employed to purify both CA isozymes in a single phase. A previous process was used to manufacture the column chemical material for affinity chromatography containing Sepharose-4B-L-Tyrosine-Sulfanilamide. As previously shown, the protein molecules’ flow in the column eluates was measured spectrophotometrically at 280 nm. […] The substrate used, p-nitrophenyl acetate, was enzymatically converted by both isoenzymes into p-nitrophenolate ions.

Assay [4] deals with hCA II (Homo sapiens, UniProt P00918). Put plainly: hCA II inhibition, spectrophotometric esterase method (p-nitrophenyl acetate). The assay is classed as biochemical. The conditions noted are these: p-nitrophenyl acetate substrate, 348 nm; for Ki: read-out: K i (μM) hCA II. Here is the method: as §3

hCA I, sequence (P00915 whole entry): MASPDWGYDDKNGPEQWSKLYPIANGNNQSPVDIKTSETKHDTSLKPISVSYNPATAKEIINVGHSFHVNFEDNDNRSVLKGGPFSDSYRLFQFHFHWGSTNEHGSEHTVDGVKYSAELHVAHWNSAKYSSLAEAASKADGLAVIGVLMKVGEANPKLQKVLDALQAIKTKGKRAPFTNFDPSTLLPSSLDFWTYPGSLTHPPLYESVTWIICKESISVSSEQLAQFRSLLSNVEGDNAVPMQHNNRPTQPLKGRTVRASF

For the compound `CC(=O)n1nc(C)n(N=Cc2cccc(OS(=O)(=O)c3ccc(C)cc3)c2)c1=O` [6a, 3-[((1-Acetyl-3-methyl-5-oxo-1,5-dihydro-4H-1,2,4-triazol-4-yl)-imino)-methyl]-phenyl-4-methylbenzenesulfonate], in assay [1], the “effect on viability of cancer cells (in words)” value (“effect on viability” below) is “decreased the viability of cancer cells in a dose-dependent manner”. Moreover, the IC50 in assay [1] was 73.2 ± 11.5 µM; in assay [2] it was more than 100 µM; in assay [3], 11.4 µM; in assay [4], 15.3 µM. Moreover, the “selectivity indices (SI) PNT1a IC50/DU145 IC50” value (“selectivity indices” for short) in assay [1] turned out to be 6.74. Also, the Ki in assay [3] turned out to be 14 ± 1.15 µM; in assay [4] it was 19.7 ± 2.48 µM.

With `CC(=O)n1nc(Cc2ccc(C)cc2)n(N=Cc2cccc(OS(=O)(=O)c3ccc(C)cc3)c2)c1=O` [6d, 3-[((1-Acetyl-3-p-methylbenzyl-5-oxo-1,5-dihydro-4H-1,2,4-triazol-4-yl)-imino)-methyl]-phenyl-4-methylbenzenesulfonate], in assay [1], the “effect on viability” value was “did not suppress the viability of cancer cells in low concentrations”; the midpoint of inhibition, the IC50, lay at 49.8 ± 11.1 µM; the “selectivity indices” value is given as 2.28. Also, the IC50 in assay [2] is more than 100 µM. In assay [3], the midpoint of inhibition, the IC50, lay at 7.12 µM and the Ki worked out at 9.26 ± 0.88 µM. Also, in assay [4], half-maximal inhibition (IC50) required 10.6 µM and the Ki stood at 11.7 ± 1.01 µM.

On to `CC(=O)n1nc(Cc2ccccc2)n(N=Cc2cccc(OS(=O)(=O)c3ccc(C)cc3)c2)c1=O` [6c, 3-[((1-Acetyl-3-benzyl-5-oxo-1,5-dihydro-4H-1,2,4-triazol-4-yl)-imino)-methyl]-phenyl-4-methylbenzenesulfonate], for which, in assay [1], the “effect on viability” value is reported as “did not suppress the viability of cancer cells in low concentrations”. Moreover, the IC50 in assay [1] is more than 100 µM; in assay [2], more than 100 µM; in assay [3], 10.2 µM; in assay [4], 14.5 µM. The “selectivity indices” value in assay [1] came to 1.22. For the same compound, the results for the Ki in assay [3] and in assay [4] were 13.1 ± 1.02 µM and 17.3 ± 2.41 µM, respectively.

As to `CCc1nn(C(C)=O)c(=O)n1N=Cc1cccc(OS(=O)(=O)c2ccc(C)cc2)c1` [6b, 3-[((1-Acetyl-3-ethyl-5-oxo-1,5-dihydro-4H-1,2,4-triazol-4-yl)-imino)-methyl]-phenyl-4-methylbenzenesulfonate], in assay [3], it took 13.7 µM to reach half-maximal inhibition (IC50) and the Ki was determined as 16.7 ± 2.14 µM. Also, in assay [4], the IC50 was 18.4 µM and the Ki was determined as 21.9 ± 3.48 µM.

`CC(=O)n1nc(Cc2ccc(Cl)cc2)n(N=Cc2cccc(OS(=O)(=O)c3ccc(C)cc3)c2)c1=O` [6e, 3-[((1-Acetyl-3-p-chlorobenzyl-5-oxo-1,5-dihydro-4H-1,2,4-triazol-4-yl)-imino)-methyl]-phenyl-4-methylbenzenesulfonate]: the “effect on viability” value in assay [1] is “decreased the viability of cancer cells in a dose-dependent manner”. Also, the IC50 in assay [1] was more than 100 µM; in assay [2], more than 100 µM; in assay [3] it was 12.3 µM; in assay [4] it was 16.8 µM. Moreover, the “selectivity indices” value in assay [1] came out at 5.23. Also, the Ki in assay [3] was 14.2 ± 1.1 µM; in assay [4] it was 18.1 ± 2.47 µM.
